Reference: US9476099B2 (TRUSTEES OF DARTMOUTH COLLEGE, priority 2012, dated 2016)

Test system: gene promoters in NT2/D1-R1 control and DNMT3B knockdown cells
Experiment: Genome-wide promoter methylation analysis, HumanMethylation27 BeadChip (Table 15)
Format: cell-based, human
Conditions: three days low-dose decitabine, control NT2/D1-R1
Method: DNA methylation analysis was performed in samples in triplicate using the […] […] assay with the HumanMethylation27 BeadChip ([…]) and the BeadChip was scanned on the BeadArray Reader ([…]), according to the manufacturer's instructions. Raw data was normalized and analyzed with Genome Studio software ([…]). The HumanMethylation27 BeadChip assays 27,578 CpGs covering more than 14,000 genes, mostly from promoter regions. […] Hierarchical clustering was performed as stated above. HumanMethylation27 BeadChip data and gene expression microarray data were submitted to NCBI GEO.

Structure (SMILES): Nc1ncn([C@H]2C[C@H](O)[C@@H](CO)O2)c(=O)n1 [decitabine, 5-aza-deoxycytidine]
- genes with altered promoter methylation: 388 genes
- genes with decreased levels of promoter methylation (of 388 genes): 305 genes
